# Laboratory results taken from paper PMC6917776, “Discovery of a chemical probe for PRDM9” (Nature Communications, 2019).
# Read-outs that look alike come from different tables or passages of the source.
# Tests used:
# BCDIN3D = target: T1, BCDIN3D (Homo sapiens, UniProt Q7Z5W3); assay: Methyltransferase selectivity assay (SPA); type: biochemical
# T1 construct: purchased Structural Genomics Consortium (SGC Toronto) in-house methyltransferase panel
# T1 sequence (Q7Z5W3 1-292): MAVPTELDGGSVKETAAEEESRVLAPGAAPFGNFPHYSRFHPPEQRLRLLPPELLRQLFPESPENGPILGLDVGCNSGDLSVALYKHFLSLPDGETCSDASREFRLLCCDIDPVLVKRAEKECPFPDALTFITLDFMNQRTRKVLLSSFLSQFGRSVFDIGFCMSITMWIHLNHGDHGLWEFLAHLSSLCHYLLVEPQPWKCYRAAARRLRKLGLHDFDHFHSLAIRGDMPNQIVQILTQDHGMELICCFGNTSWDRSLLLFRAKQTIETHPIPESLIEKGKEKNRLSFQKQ
# Protocol: (§1) Selectivity against methyltransferases were determined as described previously. Details of the assays are described in the supplementary methods.
# (§2) Methyltransferase selectivity assay1
# The effect of chemical probes and negative controls on the methyltransferase activities of protein, DNA and RNA methyltransferases was tested by radiometric assays using 3H-SAM. For proteins such as MLL1 trimeric, MLL3 pentameric, EZH1 (PRC2) pentameric, and EZH2 (PRC2) trimeric complexes, as well as G9a, GLP, SUV39H1, SUV39H2, SUV420H1, SUV420H2, SETD2, SETD8, SETDB1, SETD7, PRMT1, PRMT3, PRMT4, PRMT5/ MEP50 complex, PRMT6, PRMT7, PRMT8, PRMT9, PRDM9, SMYD2, SMYD3, DNMT1, and BCDIN3D the incorporation of a tritium-labeled methyl group into biotinylated substrate was monitored using scintillation proximity assay (SPA). Briefly, a 10 µL reaction containing 3H-SAM and substrate at concentrations close to the apparent Km values for each enzyme (balanced conditions) was prepared. The reactions were quenched with 10 µL of 7.5 M guanidine hydrochloride; 180 µL of 20 mM Tris buffer (pH 8.0) were added, and the mixture was transferred to a 96-well FlashPlate and incubated for 1 h. The counts per minute (CPM) was measured on a TopCount plate reader. The CPM in the absence of compound or enzyme was defined as 100% activity and background (0%), respectively, for each dataset. For DNMT1, the double-stranded DNA substrate was prepared by annealing two complementary strands (biotinylated forward strand: B-[…] and reverse strand:
# ) that were synthesized by Eurofins MWG Operon
# (§3) For proteins which were tested with nucleosome as substrate such as DOT1L, NSD1, NSD2, NSD3, and ASH1L, or unbiotinylated Poly(2′-deoxyinosinic-2′-deoxycytidylic acid) (Cat# 81349-500UG, Sigma Aldrich) such as DNMT3A/3L, and DNMT3B/3L, a filter-based assay was used. In this assay, a trichloroacetic acid (TCA) protein precipitation protocol was employed. A 10 µL reaction mixture was incubated at 23°C for 1 h, followed by addition of 50 µL of 10% TCA. The mixture was transferred to filter plates (Millipore, Billerica, MA, USA) that were centrifuged at 2000 rpm (Allegra X-15R; Beckman Coulter, Brea, CA, USA) for 2 min. Samples were washed twice with 10% TCA and once with ethanol (180 µL), and centrifuged. After drying, 100 µL MicroScint-O (Perkin Elmer) was added to each well and the plates were centrifuged to remove the liquid. A 70 µL volume of MicroScint-O was added and the CPM was measured with a TopCount plate reader.
# NSD2 = target: T2, NSD2 (Homo sapiens, UniProt O96028); assay: Methyltransferase selectivity assay (filter-based, nucleosome substrate); type: biochemical
# T2 construct: purchased Structural Genomics Consortium (SGC Toronto) in-house methyltransferase panel
# T2 sequence (O96028 1-1365): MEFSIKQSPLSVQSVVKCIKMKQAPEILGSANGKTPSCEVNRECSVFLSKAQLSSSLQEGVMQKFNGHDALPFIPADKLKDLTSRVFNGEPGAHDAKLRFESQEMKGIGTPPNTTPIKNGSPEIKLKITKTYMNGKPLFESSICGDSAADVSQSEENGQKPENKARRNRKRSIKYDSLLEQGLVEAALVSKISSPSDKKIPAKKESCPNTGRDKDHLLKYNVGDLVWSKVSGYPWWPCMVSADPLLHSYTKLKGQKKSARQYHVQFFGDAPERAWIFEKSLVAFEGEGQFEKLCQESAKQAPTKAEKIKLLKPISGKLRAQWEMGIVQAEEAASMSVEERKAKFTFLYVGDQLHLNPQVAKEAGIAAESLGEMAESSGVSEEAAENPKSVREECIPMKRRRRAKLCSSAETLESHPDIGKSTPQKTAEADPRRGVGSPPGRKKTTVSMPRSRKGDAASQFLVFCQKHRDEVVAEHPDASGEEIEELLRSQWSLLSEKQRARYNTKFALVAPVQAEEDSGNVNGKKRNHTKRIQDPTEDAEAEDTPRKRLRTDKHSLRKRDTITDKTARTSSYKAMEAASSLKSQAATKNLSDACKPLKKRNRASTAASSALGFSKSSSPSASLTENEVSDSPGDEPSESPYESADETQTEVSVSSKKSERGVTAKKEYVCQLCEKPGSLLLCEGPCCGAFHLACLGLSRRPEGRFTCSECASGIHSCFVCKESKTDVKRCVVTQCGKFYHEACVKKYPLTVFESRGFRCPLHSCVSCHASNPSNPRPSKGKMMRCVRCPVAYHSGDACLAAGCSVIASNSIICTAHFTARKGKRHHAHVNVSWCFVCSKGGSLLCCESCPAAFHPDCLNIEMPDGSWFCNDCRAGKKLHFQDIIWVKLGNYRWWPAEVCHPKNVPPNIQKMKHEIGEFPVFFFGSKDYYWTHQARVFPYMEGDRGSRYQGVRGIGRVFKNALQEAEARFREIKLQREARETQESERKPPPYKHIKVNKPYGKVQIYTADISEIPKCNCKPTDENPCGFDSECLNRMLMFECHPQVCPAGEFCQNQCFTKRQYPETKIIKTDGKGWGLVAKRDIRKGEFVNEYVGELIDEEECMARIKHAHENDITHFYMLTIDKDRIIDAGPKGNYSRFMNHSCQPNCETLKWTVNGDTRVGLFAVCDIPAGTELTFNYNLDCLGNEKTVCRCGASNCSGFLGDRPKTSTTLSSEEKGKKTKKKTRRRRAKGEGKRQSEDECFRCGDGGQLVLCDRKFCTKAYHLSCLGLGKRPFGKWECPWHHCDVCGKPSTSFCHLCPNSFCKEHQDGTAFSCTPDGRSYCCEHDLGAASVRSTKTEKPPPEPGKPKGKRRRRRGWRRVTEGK
# Protocol: as §1, §2
# The effect of chemical probes and negative controls on the methyltransferase activities of protein, DNA and RNA methyltransferases was tested by radiometric assays using 3H-SAM. […]
# The CPM in the absence of compound or enzyme was defined as 100% activity and background (0%), respectively, for each dataset. […]
# as §3
# [1] = 10µM compound, Exp1, Exp2, 10 µM
# [2] = 1µM compound, Exp1, Exp2, read-out: Activity %
# [3] = 10µM compound, Exp1, Exp2, read-out: Activity %
Compound,"activity at 1 µM (BCDIN3D; 1µM compound, Exp1, Exp2) [%]","Activity % (BCDIN3D; 1µM compound, Exp1, Exp2, 1 µM) [%]","activity at 10 µM (BCDIN3D; 10µM compound, Exp1, Exp2) [%]",Activity % (BCDIN3D; [1]) [%],"activity at 1 µM (NSD2; 1µM compound, Exp1, Exp2) [%]","Activity % (NSD2; 1µM compound, Exp1, Exp2, 1 µM) [%]","activity at 10 µM (NSD2; 10µM compound, Exp1, Exp2) [%]",Activity % (NSD2; [1]) [%],activity at 1 µM (BCDIN3D; [2]) [%],activity at 10 µM (BCDIN3D; [3]) [%],activity at 1 µM (NSD2; [2]) [%],activity at 10 µM (NSD2; [3]) [%]
COc1cc(OC)cc(-c2noc(N3CCN(C)C4(CCN(c5ccccc5)CC4)C3)n2)c1 [MRK-740 -NC],103,101,100,94,98,100,98,88,–,–,–,–
COc1cc(OC)cc(-c2noc(N3CCN(C)C4(CCN(c5ccnc(C)c5)CC4)C3)n2)c1 [MRK-740],–,100,–,95,–,97,–,95,101,104,91,98
